{"source": "patent EP0218400A1", "about": "“Assay methods for chemotherapeutic agents” (DAMON BIOTECH, INC., priority 1985, dated 1987)", "key": {"[1]": {"test_system": "MOLT-4 lymphoma cells", "test": "In vivo inhibition of encapsulated Molt-4 lymphoma growth in C57BL/6 mice", "design": "species or system human", "experimental": "(§1) In the experiments that follow, the drugs and other agents tested were administered to the host animal by injection at the various times called for in the protocol being tested. At various periods after treatment, the mice were killed by cervical dislocation. The peritoneal cavity of each mouse was washed with PBS or medium and floating microcapsules were aspirated using a large bore plastic Pasteur pipette. Microcapsules were transferred to 15 ml tubes and washed 3 to 4 times with PBS to remove host peritoneal cells. The washed microcapsules were aspirated into 1 ml serological pipettes, allowed to sediment, and the volume of packed microcapsules was determined. Microcapsules were then transferred to a glas dounce homogenizer (7 ml volume) and disrupted with 3 strokes of an A-tolerance plumger. Cells suspensions were filtered through nylon mesh to remove the disrupted membranes. The suspensions containing tumor cells were centrifuged and the pellet was resuspended in 0.25 to 0.5 ml of complete medium. After mixing equal volumes of cell suspension and trypan blue, viable cell counts were determined using a hemocytometer.\n(§2) The number of tumor cells per 1 ml of packed microcapsules was determined as follows: a = ? where b = total number of tumor cells in the suspension, and c = total volume of microcapsules used for the preparation of this suspension.\n(§3) By comparing the number of tumor cells in 1 ml of microcapsules derived from non-treated and drug-treated mice, the percent inhibition of tumor cell growth was calculated: [formula] where ac = number of tumor cells from the non-treated control microcapsules, and ae = number of tumor cells from the drug treated microcapsules.\nMOLT-4 lymphoma cells were also used in an in vivo assay. As before, the MOLT-4 cells were encapsulated and transplanted i.p. into C57BL/6 mice. On day 1 following the transplantation of the encapsulated cells, the mice were treated i.v. intravenous (i.v.) with BCNU, adriamycin or cyclophosphamide (CY). This approach allowed the testing of cyclophosphamide (CY) which is inefficient in vitro because it must be metabolized to obtain an active cytotoxic derivative. Ten days after transplantation, the encapsulated cells were retrieved and the tumor cells contained therein were counted. […]"}, "[2]": {"test_system": "Original P388 cells", "test": "In vivo growth of encapsulated original P388 lymphoma cells in nude mice", "experimental": "as §1, §2, §3\nSince drug-resistance is one of the most important causes of failure in chemotherapy, it is crucial that a predictive assay be able to distinguish between effective and non-effective drugs for particular tumors. […] One day later the mice received by i.v. administration Adriamycin (6 mg/kg), Vinblastin (1 mg/kg) or Cyclophosphamide (100 mg/kg). Five days after administration some of the mice were sacrificed, the microcapsules were recovered and the numbers of tumor cells inside the capsules were determined. The remaining mice received a second administration and the microcapsules were recovered from the remaining mice 3 days afterwards. The results are shown in Table 7 and correlate well with the known characteristics of P388 cell line and its variant."}, "[3]": {"test_system": "LOX Melanoma cells", "settings": "i.v.; Adriamycin 6, BCNU 20, CY 100, 5-Fu 60 mg/kg; survival during 3 months of observation; nude mice; cited from earlier work"}, "[4]": {"settings": "i.v. on day 1, Adriamycin 10 mg/kg, BCNU 100 mg/kg, CY 200 mg/kg, capsules retrieved ten days after transplantation"}, "[5]": {"settings": "5 + 3 days after treatment (3 days after second administration), Adriamycin 6, Vinblastin 1, Cyclophosphamide 100 mg/kg i.v."}, "[6]": {"settings": "5 days after treatment, i.v. one day after inoculation, Adriamycin 6, Vinblastin 1, Cyclophosphamide 100 mg/kg"}}, "data": [{"smiles": "COc1cccc2c1C(=O)c1c(O)c3c(c(O)c1C2=O)C[C@@](O)(C(=O)CO)C[C@@H]3O[C@H]1C[C@H](N)[C@H](O)[C@H](C)O1", "note": "[Adriamycin]", "values": [{"measurement": "inhibition at 10 mg/kg", "setting": "[1]; Mus musculus, MOLT-4, iv, i.v. on day 1, Adriamycin 10 mg/kg, BCNU 100 mg/kg, CY 200 mg/kg, capsules retrieved ten days after transplantation", "result": 91.3, "unit": "%"}, {"measurement": "reduction of the number of viable tumor cells in the capsules (in words)", "setting": "[1]; i.v. on day 1, ten days after transplantation", "result": "more effective than BCNU"}, {"measurement": "No. of cells per capsule", "setting": "[1]; [4]", "result": 237}, {"measurement": "Total No. of tumor cells", "setting": "[1]; [4]", "result": "8 x 10^4"}, {"measurement": "% Inhibition", "setting": "[2]; [5]", "result": 92, "unit": "%"}, {"measurement": "No. cells/ml", "setting": "[2]; [5]", "result": "4 x 10^6"}, {"measurement": "% Inhibition", "setting": "[2]; [6]", "result": 64, "unit": "%"}, {"measurement": "No. cells/ml", "setting": "[2]; [6]", "result": "8 x 10^6"}, {"measurement": "% survived mice transplanted with nonencapsulated tumor cells", "setting": "[3]", "result": 33, "unit": "%"}]}]}
